Laboratory results from patent US10689394B2, “Thieno[2,3-b]pyridine derivative, quinoline derivative, and use thereof” (The University of Tokyo, priority 2016, dated 2020).

System: SOD1 G93A transgenic mice (ALS model mice)
Test: ALS model mice, continuous intracerebroventricular administration (rotarod onset, survival, motor neuron count)
Type: in vivo, mouse
Description: Wild-type mice (C57BL/6) and SOD1 G93A transgenic mice (G1L/+ line, backcrossed to C57BL/6) were purchased from The Jackson Laboratory, and were then mated and/or bred. All assays were carried out using only male mice.
Using Brain infusion kit 3 (Alzet) and an osmotic pump (Model 2006, Alzet), the compound was continuously administered into the cerebral ventricle of the SOD1 G93A transgenic mice (average onset: 28.1+1.3-week-old (Nishitoh et al., Genes Dev 22, 1451-1464, 2008)), from the time at which the mice were 22 weeks old (0.15 μL/h, 6 weeks/pump). As a preparation stage, 50% DMSO/PBS or each compound was filled into the pump, and was then immersed in 0.9% NaCl, so that priming was carried out 37° C. for 60 hours or more. Upon installation of the pump, the mice were anesthetized by intraperitoneal administration of 0.01 μL/g xylazine (1 mg/ml, Sigma) and 0.007 μL/g Pentobarbital Sodium Salt (5.4 mg/ml, Nacalai). The head portion of each mouse was dehaired, and the mouse was then fixed on a stereotaxic instrument equipped with a manipulator (NARISHIGE). Thereafter, the skin was cut, and the skull was exposed. The coordinate of Bregma was set at 0, and the position that was 1.1 mm to the right, 0.5 mm backward, and 2.5 mm downward was set at the coordinate of the administered cerebral ventricle. The pump was arranged under the dorsal skin, a cannula was then fixed using an adhesive, and the skin on the head portion of the mouse was closed using the adhesive. The pump was exchanged with a new one every 6 weeks, until it became difficult to perform surgery due to the onset of the pathologic conditions of ALS. Upon the exchange of the pump, the mouse was anesthetized, using 4% Isoflurane (Wako Pure Chemical Industries, Ltd.) for introduction, and 2% Isoflurane for maintenance. The dorsal surface of the pump-inserted site was dehaired, and the skin was excised to remove the pump. The removed pump was exchanged with a new pump that had previously been filled with 50% DMSO/PBS or each compound. After the exchange of the pump, the excised skin was closed with Wound clip (Alzet).
From the week at which the mice became 25 weeks old, motor function was measured three times a week according to a rotarod test. ROTA-ROD (Muromachi Kikai Co., Ltd.) was set at a reached rotation speed of 40 rpm and an acceleration time of 180 seconds. The period of time required until the target mouse was fallen during 300 seconds at longest was recorded. An interval of 180 seconds was provided between two trials. Two measurements were carried out in each trial, and better results were determined to be the results of the day. An average value in a week was calculated. […]

In the case of C=CCN(C(=O)c1sc2nc(-c3cccnc3)ccc2c1N)c1ccccc1 [Example 1, N-allyl-3-amino-N-phenyl-6-(3-pyridinyl)thieno[2,3-b]pyridine-2-carboxamide], the “Effects on model mice” value (SOD1 G93A transgenic mice) is reported as “Significant effects”, the “number of motor neurons in spinal cord (Nissl staining)” value (SOD1 G93A transgenic mice, 31 weeks old, lumbar cord anterior horn, vs DMSO group, FIG. 11, 12) is reported as “the number of motor neurons was significantly high” and the “period of time required until the onset of the pathologic conditions (Onset), rotarod test” value (male SOD1 G93A transgenic mice, 3 mM continuous i.c.v. by osmotic pump from 22 weeks old, vs DMSO, FIG. 10A) is reported as “the onset was significantly delayed”. For the same compound, the “effect of extending the survival period (Survival)” value (male SOD1 G93A transgenic mice, 3 mM continuous i.c.v. by osmotic pump from 22 weeks old, vs DMSO, FIG. 10B) was “approximately 14%”.
